# Reference: patent US20240343712A1, “SOLID-STATE FORMS OF 2-(3-(4-(1H-INDAZOL-5-YLAMINO)QUINAZOLIN-2-YL)PHENOXY)-N-ISOPROPYLACETAMIDE METHANE SULFONIC ACID SALT” (Sandoz AG, priority 2021, published 2024)
# Legend:
# [1] = Gravimetric moisture sorption (GMS); assay type: physicochemical; details: (25 ± 0.1)° C.; for Comment (hygroscopicity / behaviour upon moisture contact) / Δm (0-80% RH): 0-80% RH; for Δm (0-80% RH): gravimetric moisture sorption
# Protocol: Moisture sorption isotherms were recorded with an SPSx-1μ moisture sorption analyzer (ProUmid, Ulm). The measurement cycle was started at ambient relative humidity (RH) of 40%. Relative humidity was then decreased to 5% RH in 5% steps, followed by a further decrease to 3% RH and to 0% RH. Afterwards RH was increased from 0% to 90% in a sorption cycle and decreased to 0% in a desorption cycle in 5% steps. Finally RH was increased from 0 to 40% in 5% steps.
# The time per step was set to a minimum of 2 hours and a maximum of 6 hours. If an equilibrium condition with a constant mass of +0.01% within 1 hour was reached before the maximum time for all examined samples the sequential humidity step was applied before the maximum time of 6 hours. If no equilibrium was achieved the consecutive humidity step was applied after the maximum time of 6 hours. The temperature was 25±0.1° C.
# [2] = Thermogravimetric analysis (TGA); assay type: physicochemical; details: for stability against temperature stress: DSC and TGA, Examples 7 and 8
# Protocol: TGA was performed on a Mettler TGA/DSC 1 instrument. The samples (5.15 mg Form I, 5.69 Form II, 3.97 mg Form HyA, and 8.55 mg Form HyB) were each heated in a 100 microliter aluminium pan closed with an aluminium lid from 25 to 300° C. at a rate of 10 K/min. The lid was automatically pierced at the beginning of the measurement. Nitrogen (purge rate 50 mL/min) was used as purge gas.
Comment (hygroscopicity / behaviour upon moisture contact) [1],Δm (0-80% RH) [1],stability against temperature stress [2],Compound,other results
Very hygroscopic,+21.2 w % w-%,–,"CC(C)NC(=O)COc1cccc(-c2nc(Nc3ccc4[nH]ncc4c3)c3ccccc3n2)c1.CS(=O)(=O)O [Amorphous mesylate, 2-(3-(4-(1H-indazol-5-ylamino)quinazolin-2-yl)phenoxy)-N-isopropylacetamide methane sulfonic acid]",Comment (hygroscopicity / behaviour upon moisture contact) ([1]; listed as amorphous belumosudil mesylate): moderately hygroscopic
–,–,–,"CC(C)NC(=O)COc1cccc(-c2nc(Nc3ccc4[nH]ncc4c3)c3ccccc3n2)c1.CS(=O)(=O)O [Mesylate Form HyA, 2-(3-(4-(1H-indazol-5-ylamino)quinazolin-2-yl)phenoxy)-N-isopropylacetamide methane sulfonic acid]","Relative humidity of dehydration (release of crystal water) [1]: Dehydration below 3% RH; Δm (0-130° C.), TGA mass loss ([2]; 0-130° C., 10 K/min, nitrogen): Δm (0-130° C.) = 5.97%, corresponds to a dihydrate"
–,–,–,"CC(C)NC(=O)COc1cccc(-c2nc(Nc3ccc4[nH]ncc4c3)c3ccccc3n2)c1.CS(=O)(=O)O [Mesylate Form HyB, 2-(3-(4-(1H-indazol-5-ylamino)quinazolin-2-yl)phenoxy)-N-isopropylacetamide methane sulfonic acid]","Δm (0-140° C.), TGA mass loss ([2]; 0-140° C., 10 K/min, nitrogen): Δm (0-140° C.) = 3.19%, corresponds to a monohydrate"
Slightly hygroscopic,+1.9 w-%,stable against temperature stress,"CC(C)NC(=O)COc1cccc(-c2nc(Nc3ccc4[nH]ncc4c3)c3ccccc3n2)c1.CS(=O)(=O)O [Mesylate Form I, 2-(3-(4-(1H-indazol-5-ylamino)quinazolin-2-yl)phenoxy)-N-isopropylacetamide methane sulfonic acid]","Comment (hygroscopicity / behaviour upon moisture contact) ([1]; listed as belumosudil mesylate Form I): only slightly hygroscopic; Δm (0-250° C.), TGA mass loss ([2]; 0-250° C., 10 K/min, nitrogen): Δm (0-250° C.) = 0.87%, anhydrate"
Slightly hygroscopic,+1.4 w-%,stable against temperature stress,"CC(C)NC(=O)COc1cccc(-c2nc(Nc3ccc4[nH]ncc4c3)c3ccccc3n2)c1.CS(=O)(=O)O [Mesylate Form II, 2-(3-(4-(1H-indazol-5-ylamino)quinazolin-2-yl)phenoxy)-N-isopropylacetamide methane sulfonic acid]","Comment (hygroscopicity / behaviour upon moisture contact) ([1]; listed as Form II): only slightly hygroscopic; Δm (0-100° C.), TGA mass loss ([2]; 0-100° C., 10 K/min, nitrogen): Δm (0-100° C.) = 0.32%, anhydrate"
